Test results reported in patent US20080039337A1, “Method for Detection of Conformational Change of a Protein Immobilized on a Substrate” (FUENCE CO., LTD., priority 2004, published 2008).

Target: T1, Amyloid β (1-42) (Homo sapiens, UniProt P05067)
T1 construct: Amyloid β (1-42); purchased Bachem AG, Bubendorf, Switzerland (printed 'Bachem A G, Budendorf')
Experiment: Detection of conformational change to β-sheet structure of amyloid β (1-42) film immobilized on a substrate, by fluorescent dye binding
Assay type: biochemical
Conditions: film immersed into 1 mM ZnCl2 in 10 mM Hepes pH 7.4, 0.15 M NaCl for 10 minutes; dye 1-fluoro-2,5-bis(3-carboxy-4-hyrdoxystyryl)benzene; compared with buffer only and with EDTA after ZnCl2
Protocol: Amyloid β (1-42) (Bachem A G, Budendorf, Switzerland) was dissolved in 0.1% ammonia water at the concentration of 1 mg/mL. This solution was sprayed under dry air using an electrospry device described in WO 2002-511792 or an immobilzing device described in Japanese Patent Publication No. 2003-136005. The solution was permeated through a mask with holes of 400 μm in length and 800 μm in width, and then a film having 1 μm thickness was prepared using an electrospray method (the EDS method), then protein was cross-linked at 30° C. for 5 minutes by glutaraldehyde.
The resulting film was immersed into 10 mM Hepes pH 7.4 buffer solution (hereinafter referred to as “the buffer solution”) containing 0.15 M NaCl for 10 minutes, in the presence or absence of ZnCl2, except that the EDTA sample was only reacted with 1 mM ZnCl2 and then immersed in a buffer solution containing 1 mM EDTA for 10 minutes. After that the film was immersed into a solution of 1-fluoro-2,5-bis(3-carboxy-4-hyrdoxystyryl)benzene (Dojindo Chemical Laboratory Co., Kumamoto) that binds to β-sheet structure, prepared to the final concentration of 0.01% using 50% ethanol solution. Furthermore, the film was immersed into a solution of saturated lithium carbonate, then it was lightly washed by 50% ethanol, then dried and observed under fluorescent microscope. […]

T1 sequence (P05067 672-713): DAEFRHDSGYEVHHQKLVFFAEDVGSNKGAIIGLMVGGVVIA

[Cl-].[Cl-].[Zn+2] [ZnCl2]
fluorescent intensity of the film (relative intensity), indicating change of amyloid β to β sheet structure: the highest
